Experimental data published in patent US20230271950A1, “ANTIBACTERIAL PICOLINAMIDE COMPOUNDS” (University of Notre Dame Du Lac, priority 2020, published 2023).
Values after ≈ are worked out from the molar mass of the structure shown. Where two headings read alike, the source gives them in different places.

Key:
C. difficile = assay: MIC by broth microdilution against C. difficile strains; assay type: cell-based, Clostridioides difficile; details: for MIC: Clostridioides difficile
S. aureus ATCC29213 = assay: MIC against MSSA; assay type: cell-based, Staphylococcus aureus; details: Staphylococcus aureus; MSSA ATCC 29213; Table 10, unit inferred; read-out: Activity (MIC) against S. aureus
E. faecium NCTC7171 = assay: MIC against E. faecium; assay type: cell-based, Enterococcus faecium; details: Enterococcus faecium, NCTC7171; E. faecium NCTC 7171; Table 10, unit inferred; read-out: Activity (MIC) against E. faecium
HeLa cells = assay: XTT cytotoxicity assay with HeLa cells; assay type: cell-based; details: Homo sapiens, Table 6
Protocol: XTT assay. Cytotoxicity assays were performed in triplicate against HeLa cells (ATCC CCL-2). The IC50 values were calculated by nonlinear regression with GraphPad Prism 5 (San Diego, Calif.).
XTT assay. XTT assays were performed with HeLa cells (ATCC CCL-2) in triplicate, as previously described (Lancet 2008, 371, 1486). IC50 values were determined by nonlinear regression using GraphPad Prism 5 (San Diego, Calif.).

[1] = Pharmacokinetics study in mice (plasma and feces levels); assay type: in vivo; details: for Conc. feces/MIC: dose 20 mg · kg^−1; for concentration at 8 h: female, CD-1, mouse, single oral gavage, dose 20 mg · kg^−1, feces collected after 8 h, read-out: Drug concentration in fecal samples (mg kg^−1 feces)
Protocol: Pharmacokinetics (PK) study. Mice (n=2 per time point) were given a single 100 μL solution of 5 mg/mL of compound 1 (equivalent to 20 mg/kg). Terminal blood was collected in heparinized syringes by cardiac puncture at 30 min, 1 h, 2 h, 4 h, and 8 h. The two mice at the 8-h time point were place in metabolism cages for collection of feces. Compound 1 was dissolved in 5% DMSO/95% water with 96 mg/mL of sodium bicarbonate. Blood was centrifuged at 1,000 g for 20 min at 4° C. and plasma was separated and stored at −80° C. until analysis. A 45-μL aliquot of plasma was mixed with 5 μL of H2O:ACN (1:1) and was quenched with 100 μL of acetonitrile containing 20 μM of internal standard (compound 10). The sample was centrifuged at 21,000 g for 15 min at 4° C. to precipitate the proteins, and the resulting supernatant was analyzed by UPLC-TQD detector using multiple-reaction monitoring (MRM). Calibration curves for compound 1 were prepared from 0 to 102.4 μM using a control mouse plasma (50 μL). Peak area ratios relative to internal standard and linear regression was used from which the concentrations in plasma samples from the PK study were determined.
An average of 250 mg of feces were collected at 8 h from two mice, and subsequently homogenized with 6 times the feces volume (1,500 μL of H2O:ACN 1:1) using a Bullet Blender (Next Advance, Inc., Troy, N.Y.). The homogenate was centrifuged at 21,000 g for 5 min. The fecal supernatant (72 μL) was mixed with 8 μL of a solution of H2O:ACN (1:1) and 40 μL of 50 μM of the internal standard in ACN with 0.5% formic acid. A calibration curve was prepared from 0 μM to 102.4 μM in control mouse feces. Plasma and feces were analyzed on a Waters TQD tandem quadrupole detector (Waters Corporation, Milford, Mass.) using a YMC-Triart C18 100 mm×2.0 mm column (3μ, YMC Co. Ltd, Kyoto, Japan). The chromatographic conditions consisted of elution with 30% H2O/70% ACN containing 0.10% formic acid for 5 min at a flow rate 0.5 mL/min. Mass Spectrometry acquisition was performed in the positive electrospray ionization mode with MRM. The capillary, cone, extractor and RF lens voltages were set at 2.8 kV, 40 V, 1 V and 0.1 V, respectively. The desolvation and cone gas (nitrogen) flow rates were 650 L/h and 50 L/h, respectively. The source temperature was set at 150° C. The desolvation temperature was 350° C. The MRM transitions used were 459.4→254.0 for compound 1, and 294.8→133.5 for the internal standard.
Animals. Female C57BL/6 mice weighing 18-20 g and 6-8 weeks of age were used for the efficacy study (Jackson, Bar Harbor, Me.). Female CD-1 mice (24-31 g and 7-8 weeks of age) were used for the PK study. They were housed in groups of five mice in sterile polycarbonate shoeboxes with bedding consisting of ¼-inch corncob (The Andersons Ind., Maumee, Ohio) and Alpha-Dri (Shepherd Specialty Papers, Inc., Richland, Mich.). Mice were maintained on a 12-h light/dark cycle at 72° F. and were given Teklad 2918 irradiated extruded rodent diet and water ad libitum. All procedures were performed in accordance with and approved by the University of Notre Dame Institutional Animal Care and Use Committee.
Pharmacokinetics (PK) Studies. Compounds 4, 87, 107, and 108 were dissolved in 10% DMSO, 25% propylene glycol, 15% Tween 80 and 50% water at concentrations of 5 mg/mL or 10 mg/mL. Compound 116 was dissolved in 5% DMSO, 95% water with 96 mg/mL of sodium bicarbonate. Mice (n=2 per time point) were given a single 100 μL oral gavage of the test compound (equivalent to either 10 mg/kg and/or 20 mg/kg), and terminal blood was collected in heparinized syringes by cardiac puncture at 30 min, 1 h, 2 h, 4 h, and 8 h. An average of 250 mg of feces were collected after 8 h from two mice housed in metabolism cages in each group for further analysis. Blood was centrifuged at 1000 g for 2 min at 4° C. to obtain plasma. Plasma and fecal samples were stored at −80° C. until analysis. […]

MRSA (NRS70, NRS119) = assay: MIC against MRSA strains; assay type: cell-based, Staphylococcus aureus; details: Staphylococcus aureus, NRS70 strain; Table 3 (SAR^2 and SAR^3); read-out: MIC MRSA
[2] = C. difficile, Table 8, read-out: MIC
[3] = ATCC43255, ATCC 43255, ribotype 087, Table 3 (SAR^2 and SAR^3), read-out: MIC C. difficile
[4] = MIC MRSA/MIC C. difficile, Table 3

Row | MIC (C. difficile; ATCC43255, C. difficile ATCC 43255, read-out: MIC against C. difficile) | MIC (S. aureus ATCC29213) | MIC (E. faecium NCTC7171) | MIC (C. difficile; [3]) | MIC (MRSA (NRS70, NRS119)) | SMILES | MIC (C. difficile; [2]) | Selectivity (C. difficile; Table 8) | IC50 (HeLa cells) | Conc. feces/MIC [1] | concentration at 8 h [1] | Selectivity (C. difficile; [4])
1 | 0.5 mg/L | 128 mg/L | 128 mg/L |  |  | O=C([O-])c1ccc2oc(NC(=O)c3cc(Oc4ccc(F)c(F)c4)ccn3)nc2c1.[Na+] [Compound 116, Sodium 2-(4-(3,4-difluorophenoxy)picolinamido)benzo[d]oxazole-5-carboxylate] | 0.5 mg/L | 128 | > 128 mg/L | 7.4 | 3700 ng/g | 
2 |  | 0.12 mg/L (≈ 0.343 µM) | 0.5 mg/L (≈ 1.43 µM) |  |  | O=C(Nc1ncco1)c1ccnc(Oc2ccc(Cl)c(Cl)c2)c1 [Compound 99, 2-(3,4-Dichlorophenoxy)-N-(oxazol-2-yl)isonicotinamide] |  |  | 37 ± 1 mg/L (≈ 106 µM) |  |  | 
3 |  | 8 mg/L (≈ 18 µM) | 64 mg/L (≈ 144 µM) |  |  | O=C(O)c1ccc2nc(NC(=O)c3cc(-c4ccc(OC(F)(F)F)cc4)ccn3)oc2c1 [Compound 118, 2-(4-(4-(Trifluoromethoxy)phenyl)picolinamido)benzo[d]oxazole-6-carboxylic acid] |  |  | 79.9 ± 6.3 mg/L (≈ 180 µM) |  |  | 
4 |  | ≥ 128 mg/L | ≥ 128 mg/L | 1 mg/L (≈ 3.32 µM) | 64 mg/L (≈ 212 µM) | O=C(Nc1ncco1)c1cc(-c2cc(F)cc(F)c2)ccn1 [Compound 94, 4-(3,5-Difluorophenyl)-N-(oxazol-2-yl)picolinamide] |  |  | 40.1 ± 1.6 mg/L (≈ 133 µM) |  |  | 64
5 |  |  |  |  |  | O=C(O)c1ccc2nc(NC(=O)c3cc(-c4cccc(OC(F)(F)F)c4)ccn3)oc2c1 [Compound 119, 2-(4-(3-(Trifluoromethoxy)phenyl)picolinamido)benzo[d]oxazole-6-carboxylic acid] |  |  | 124 ± 3.3 mg/L (≈ 279 µM) |  |  | 
6 |  | ≥ 128 mg/L | ≥ 128 mg/L | 0.25 mg/L (≈ 0.787 µM) | 128 mg/L (≈ 403 µM) | O=C(Nc1ncco1)c1cc(-c2ccc(Cl)c(F)c2)ccn1 [Compound 92, 4-(4-Chloro-3-fluorophenyl)-N-(oxazol-2-yl)picolinamide] |  |  | > 256 mg/L |  |  | 512
7 |  | 0.5 mg/L (≈ 1.45 µM) | 1 mg/L (≈ 2.91 µM) | 0.5 mg/L (≈ 1.45 µM) | 0.25 mg/L (≈ 0.726 µM) | O=C(Nc1ncco1)c1ccnc(-c2ccc(Br)cc2)c1 [Compound 48, 2-(4-Bromophenyl)-N-(oxazol-2-yl)isonicotinamide] |  |  |  |  |  | 0.5
8 |  | 0.25 mg/L (≈ 0.75 µM) | 1 mg/L (≈ 3 µM) | 0.25 mg/L (≈ 0.75 µM) | 1 mg/L (≈ 3 µM) | O=C(Nc1ncco1)c1ccnc(-c2ccc(C(F)(F)F)cc2)c1 [Compound 44, N-(Oxazol-2-yl)-2-(4-(trifluoromethyl)phenyl)isonicotinamide] |  |  |  |  |  | 4
9 |  | ≥ 128 mg/L | ≥ 128 mg/L | 0.5 mg/L (≈ 1.77 µM) | 64 mg/L (≈ 226 µM) | O=C(Nc1ncco1)c1cc(-c2cccc(F)c2)ccn1 [Compound 93, 4-(3-Fluorophenyl)-N-(oxazol-2-yl)picolinamide] |  |  | > 64 mg/L |  |  | 128
10 |  | ≥ 128 mg/L | ≥ 128 mg/L | 0.5 mg/L (≈ 1.66 µM) | 128 mg/L (≈ 425 µM) | O=C(Nc1ncco1)c1cc(-c2ccc(F)c(F)c2)ccn1 [Compound 90, 4-(3,4-Difluorophenyl)-N-(oxazol-2-yl)picolinamide] |  |  | > 64 mg/L |  |  | 256
11 |  | 0.5 mg/L (≈ 1.67 µM) | 1 mg/L (≈ 3.34 µM) | 0.5 mg/L (≈ 1.67 µM) | 0.25 mg/L (≈ 0.834 µM) | O=C(Nc1ncco1)c1ccnc(-c2cccc(Cl)c2)c1 [Compound 33, 2-(3-Chlorophenyl)-N-(oxazol-2-yl)isonicotinamide] |  |  |  |  |  | 0.5
12 |  | 0.25 mg/L (≈ 0.75 µM) | 1 mg/L (≈ 3 µM) | 0.25 mg/L (≈ 0.75 µM) | 0.25 mg/L (≈ 0.75 µM) | O=C(Nc1ncco1)c1ccnc(-c2cccc(C(F)(F)F)c2)c1 [Compound 45, N-(Oxazol-2-yl)-2-(3-(trifluoromethyl)phenyl)isonicotinamide] |  |  |  |  |  | 1

Row | SMILES | MIC (C. difficile; ATCC43255, C. difficile ATCC 43255, read-out: MIC against C. difficile) | MIC (S. aureus ATCC29213) | MIC (E. faecium NCTC7171) | MIC (C. difficile; [3]) | MIC (MRSA (NRS70, NRS119)) | MIC (C. difficile; [2]) | Selectivity (C. difficile; Table 8) | IC50 (HeLa cells) | Conc. feces/MIC [1] | concentration at 8 h [1] | Selectivity (C. difficile; [4])
13 | O=C(Nc1ncco1)c1cc(Oc2cccc(F)c2)ccn1 [Compound 107, 4-(3-Fluorophenoxy)-N-(oxazol-2-yl)picolinamide] |  | 64 mg/L (≈ 214 µM) | 64 mg/L (≈ 214 µM) |  |  | 1 mg/L (≈ 3.34 µM) | >256 | 88 ± 2.3 mg/L (≈ 294 µM) | 2.4 | 2400 ng/g | 
14 | O=C(Nc1ncco1)c1cc(Oc2ccc(F)c(F)c2)ccn1 [Compound 106, 4-(3,4-Difluorophenoxy)-N-(oxazol-2-yl)picolinamide] |  | 64 mg/L (≈ 202 µM) | 128 mg/L (≈ 403 µM) |  |  |  |  | 106 ± 2.1 mg/L (≈ 334 µM) |  |  | 
15 | COC(=O)c1ccc2oc(NC(=O)c3cc(Oc4ccc(F)c(F)c4)ccn3)nc2c1 [Compound 114, Methyl 2-(4-(3,4-difluorophenoxy)picolinamido)benzo[d]oxazole-5-carboxylate] |  | 128 mg/L (≈ 301 µM) | ≥ 128 mg/L |  |  |  |  | 53.3 ± 3.6 mg/L (≈ 125 µM) |  |  | 
16 | O=C(Nc1ncco1)c1cc(-c2ccc(F)cc2)ccn1 [Compound 89, 4-(4-Fluorophenyl)-N-(oxazol-2-yl)picolinamide] |  | ≥ 128 mg/L | ≥ 128 mg/L | 1 mg/L (≈ 3.53 µM) | 64 mg/L (≈ 226 µM) |  |  | 170 ± 2.5 mg/L (≈ 601 µM) |  |  | 64
17 | O=C(Nc1ncco1)c1cc(Oc2ccc(OC(F)(F)F)cc2)ccn1 [Compound 109, N-(Oxazol-2-yl)-4-(4-(trifluoromethoxy)phenoxy)picolinamide] |  | ≥ 128 mg/L | ≥ 128 mg/L |  |  |  |  | 77.4 ± 2.3 mg/L (≈ 212 µM) |  |  | 
18 | O=C(Nc1ncco1)c1cc(-c2ccc(C(F)(F)F)cc2)ccn1 [Compound 97, N-(Oxazol-2-yl)-4-(4-(trifluoromethyl)phenyl)picolinamide] |  | ≥ 128 mg/L | ≥ 128 mg/L | 0.25 mg/L (≈ 0.75 µM) | 128 mg/L (≈ 384 µM) |  |  | 135 ± 8.6 mg/L (≈ 405 µM) |  |  | 512
19 | O=C(Nc1ncco1)c1cc(-c2cccc(C(F)(F)F)c2)ccn1 [Compound 98, N-(Oxazol-2-yl)-4-(3-(trifluoromethyl)phenyl)picolinamide] |  | ≥ 128 mg/L | ≥ 128 mg/L | 0.5 mg/L (≈ 1.5 µM) | 64 mg/L (≈ 192 µM) |  |  | 115 ± 2.2 mg/L (≈ 344 µM) |  |  | 128
20 | O=C(Nc1ncco1)c1cc(Oc2ccc(SC(F)(F)F)cc2)ccn1 [Compound 110, N-(Oxazol-2-yl)-4-(4-((trifluoromethyl)thio)phenoxy)picolinamide] |  | ≥ 128 mg/L | ≥ 128 mg/L |  |  |  |  | 91.6 ± 1.3 mg/L (≈ 240 µM) |  |  | 
